In brackets after ≈: the same amount, converted by molar mass. Activity calls are given as the source filed them. The rule behind the calls is not given here.
Columns and labels:
Format in all cases: functional
[1] = system: Salmonella typhi; test: Antibacterial activity against Salmonella enterica subsp. enterica serovar Typhi MTCC 1251 after 24 hr by serial tube dilution method
[2] = system: HEp-2; test: Cytotoxicity against Homo sapiens (human) Hep2 cells assessed as cell growth inhibition at 1 x 10^-5 M after 48 hr by SRB assay; settings: for inhibition of growth at 10 µM: HEp-2, 48 h, read-out: GI
[3] = system: Staphylococcus aureus; test: Antibacterial activity against Staphylococcus aureus MTCC 96 after 24 hr by serial tube dilution method
[4] = system: PC-3; test: Cytotoxicity against Homo sapiens (human) PC3 cells assessed as cell growth inhibition at 1 x 10^-5 M after 48 hr by SRB assay; settings: for inhibition of growth at 10 µM: PC-3, 48 h, read-out: GI
[5] = system: Bacillus subtilis; test: Antibacterial activity against Bacillus subtilis MTCC 2451 after 24 hr by serial tube dilution method
[6] = system: IMR-32; test: Cytotoxicity against Homo sapiens (human) IMR32 cells assessed as cell growth inhibition at 1 x 10^-5 M after 48 hr by SRB assay; settings: for inhibition of growth at 10 µM: IMR-32, 48 h, read-out: GI
[7] = system: Pseudomonas aeruginosa; test: Antibacterial activity against Pseudomonas aeruginosa MTCC 2642 after 24 hr by serial tube dilution method
[8] = system: Aspergillus niger; test: Antifungal activity against Aspergillus niger MTCC 1344 after 48 hr by serial tube dilution method; settings: MTCC 1344, 48 h
[9] = system: Candida albicans; test: Antifungal activity against Candida albicans MTCC 3018 after 48 hr by serial tube dilution method; settings: MTCC 3018, 48 h
[10] = system: OVCAR; test: Cytotoxicity against Homo sapiens (human) OVCAR cells assessed as cell growth inhibition at 1 x 10^-5 M after 48 hr by SRB assay; settings: for inhibition of growth at 10 µM: read-out: GI
[11] = system: Escherichia coli; test: Antibacterial activity against Escherichia coli MTCC 82 after 24 hr by serial tube dilution method

Row | Compound | MIC ([1]; MTCC 1251, 24 h) | inhibition of growth at 10 µM [2] | MIC ([3]; MTCC 96, 24 h) | inhibition of growth at 10 µM [4] | MIC ([5]; MTCC 2451, 24 h) | inhibition of growth at 10 µM [6] | MIC ([7]; MTCC 2642, 24 h) | MIC [8] | MIC [9] | inhibition of growth at 10 µM [10] | MIC ([11]; MTCC 82, 24 h) | MIC [1] | MIC [3] | MIC [5] | MIC [7] | MIC [11] | growth inhibition (GI) [2] | growth inhibition (GI) [4] | growth inhibition (GI) [6] | growth inhibition (GI) [10]
1 | COc1ccc(/C=C/C(=O)c2ccc3ccccc3c2)c(OC)c1OC | 15.6 µg/mL (≈ 44.8 µM) | 72% | 3.9 µg/mL (≈ 11.2 µM) | 81% | 3.9 µg/mL (≈ 11.2 µM) | 75% | 7.8 µg/mL (≈ 22.4 µM) | 62.5 µg/mL (≈ 179 µM) | 125 µg/mL (≈ 359 µM) | 88% | 15.6 µg/mL (≈ 44.8 µM) |  |  |  |  |  |  |  |  | 
2 | GENTAMICIN |  |  |  |  |  |  |  |  |  |  |  | 0.2 µg/mL | 0.4 µg/mL | 0.3 µg/mL | 0.25 µg/mL | 0.25 µg/mL |  |  |  | 
3 | O=C(/C=C/c1cccc(Br)c1)c1ccc2ccccc2c1 | 125 µg/mL (≈ 371 µM) |  | 125 µg/mL (≈ 371 µM) |  | 125 µg/mL (≈ 371 µM) | 11% | 250 µg/mL (≈ 741 µM) |  |  | 14% | 250 µg/mL (≈ 741 µM) |  |  |  |  |  | inactive | inactive |  | 
4 | O=C(/C=C/c1ccc2c(c1)OCO2)c1ccc2ccccc2c1 | 125 µg/mL (≈ 413 µM) | 42% | 62.5 µg/mL (≈ 207 µM) | 42% | 125 µg/mL (≈ 413 µM) | 39% | 250 µg/mL (≈ 827 µM) |  |  | 46% | 125 µg/mL (≈ 413 µM) |  |  |  |  |  |  |  |  | 
5 | O=C(/C=C/c1cccc(Cl)c1Cl)c1ccc[nH]1 | 15.6 µg/mL (≈ 58.6 µM) | 15% | 7.8 µg/mL (≈ 29.3 µM) | 11% | 31.2 µg/mL (≈ 117 µM) |  | 7.8 µg/mL (≈ 29.3 µM) | 125 µg/mL (≈ 470 µM) | 250 µg/mL (≈ 939 µM) |  | 15.6 µg/mL (≈ 58.6 µM) |  |  |  |  |  |  |  | inactive | inactive
6 | O=C(/C=C/c1ccco1)c1ccc2ccccc2c1 | 500 µg/mL (≈ 2010 µM) | 21% | 125 µg/mL (≈ 503 µM) | 16% | 250 µg/mL (≈ 1010 µM) | 13% | 250 µg/mL (≈ 1010 µM) |  |  |  |  |  |  |  |  |  |  |  |  | inactive
7 | O=C(/C=C/c1c(Cl)cccc1Cl)c1ccco1 | 125 µg/mL (≈ 468 µM) | 11% | 62.5 µg/mL (≈ 234 µM) |  | 125 µg/mL (≈ 468 µM) |  | 250 µg/mL (≈ 936 µM) | 250 µg/mL (≈ 936 µM) | 250 µg/mL (≈ 936 µM) |  | 62.5 µg/mL (≈ 234 µM) |  |  |  |  |  |  | inactive | inactive | inactive
8 | COc1ccc(/C=C/C(=O)c2ccc3ccccc3c2)cc1 |  | 29% |  | 33% |  | 36% |  |  |  | 31% |  |  |  |  |  |  |  |  |  | 
9 | O=C(/C=C/c1cccc(Cl)c1Cl)c1ccc2ccccc2c1 | 62.5 µg/mL (≈ 191 µM) | 9% | 31.2 µg/mL (≈ 95.4 µM) |  | 31.2 µg/mL (≈ 95.4 µM) |  | 62.5 µg/mL (≈ 191 µM) | 250 µg/mL (≈ 764 µM) | 250 µg/mL (≈ 764 µM) | 11% | 31.2 µg/mL (≈ 95.4 µM) |  |  |  |  |  |  | inactive | inactive | 
10 | COc1ccc(/C=C/C(=O)c2ccc3ccccc3c2)cc1O | 125 µg/mL (≈ 411 µM) | 57% | 15.6 µg/mL (≈ 51.3 µM) | 47% | 31.2 µg/mL (≈ 103 µM) | 61% | 250 µg/mL (≈ 821 µM) |  |  | 52% | 62.5 µg/mL (≈ 205 µM) |  |  |  |  |  |  |  |  | 
11 | O=C(/C=C/c1ccccc1)c1ccc2ccccc2c1 |  | 27% | 250 µg/mL (≈ 968 µM) | 28% |  | 19% | 500 µg/mL (≈ 1940 µM) |  |  | 21% | 500 µg/mL (≈ 1940 µM) |  |  |  |  |  |  |  |  | 
12 | OC(Cn1cncn1)(Cn1cncn1)c1ccc(F)cc1F [FLUCONAZOLE] |  |  |  |  |  |  |  | 0.2 µg/mL (≈ 0.653 µM) | 0.3 µg/mL (≈ 0.98 µM) |  |  |  |  |  |  |  |  |  |  | 
13 | O=C(/C=C/c1cccc([N+](=O)[O-])c1)c1ccc[nH]1 | 500 µg/mL (≈ 2060 µM) | 17% | 125 µg/mL (≈ 516 µM) | 13% | 250 µg/mL (≈ 1030 µM) | 14% |  | 500 µg/mL (≈ 2060 µM) |  |  | 250 µg/mL (≈ 1030 µM) |  |  |  |  |  |  |  |  | inactive
14 | O=C(/C=C/c1ccc([N+](=O)[O-])cc1)c1ccc[nH]1 |  | 13% | 250 µg/mL (≈ 1030 µM) | 11% |  | 11% |  |  |  | 14% | 500 µg/mL (≈ 2060 µM) |  |  |  |  |  |  |  |  | 
15 | O=C(/C=C/c1ccccc1)c1ccc[nH]1 | 500 µg/mL (≈ 2540 µM) | 23% | 125 µg/mL (≈ 634 µM) | 22% | 250 µg/mL (≈ 1270 µM) | 14% |  |  |  | 18% | 500 µg/mL (≈ 2540 µM) |  |  |  |  |  |  |  |  | 
16 | O=C(/C=C/c1cccc([N+](=O)[O-])c1)c1ccco1 |  | 16% | 125 µg/mL (≈ 514 µM) |  | 125 µg/mL (≈ 514 µM) |  | 125 µg/mL (≈ 514 µM) |  |  | 13% | 125 µg/mL (≈ 514 µM) |  |  |  |  |  |  | inactive | inactive | 
17 | COc1cccc(/C=C/C(=O)c2ccc[nH]2)c1OC |  | 33% |  | 31% |  | 28% |  |  |  | 24% |  |  |  |  |  |  |  |  |  | 
18 | CC1(C)S[C@@H]2[C@H](NC(=O)[C@H](N)c3ccc(O)cc3)C(=O)N2[C@H]1C(=O)O [AMOXICILLIN] | 0.2 µg/mL (≈ 0.547 µM) |  | 0.2 µg/mL (≈ 0.547 µM) |  | 0.2 µg/mL (≈ 0.547 µM) |  | 0.3 µg/mL (≈ 0.821 µM) |  |  |  | 0.25 µg/mL (≈ 0.684 µM) |  |  |  |  |  |  |  |  | 
19 | O=C(/C=C/c1ccc2c(c1)OCO2)c1ccco1 | 125 µg/mL (≈ 516 µM) | 13% | 62.5 µg/mL (≈ 258 µM) | 21% | 31.2 µg/mL (≈ 129 µM) | 16% | 125 µg/mL (≈ 516 µM) | 500 µg/mL (≈ 2060 µM) |  | 11% | 125 µg/mL (≈ 516 µM) |  |  |  |  |  |  |  |  | 
20 | O=C(/C=C/c1ccccc1)c1ccco1 |  |  | 250 µg/mL (≈ 1260 µM) | 19% | 250 µg/mL (≈ 1260 µM) | 13% |  |  |  |  |  |  |  |  |  |  | inactive |  |  | inactive
21 | O=C(/C=C/c1cccc([N+](=O)[O-])c1)c1ccc2ccccc2c1 |  | 17% | 125 µg/mL (≈ 412 µM) | 16% |  | 11% |  |  |  | 13% | 250 µg/mL (≈ 824 µM) |  |  |  |  |  |  |  |  | 
22 | O=C(/C=C/c1ccc2ccccc2c1)c1ccc2ccccc2c1 |  | 73% | 62.5 µg/mL (≈ 203 µM) | 79% | 125 µg/mL (≈ 405 µM) | 77% | 250 µg/mL (≈ 811 µM) |  |  | 76% | 125 µg/mL (≈ 405 µM) |  |  |  |  |  |  |  |  | 
23 | COc1ccc(OC)c(/C=C/C(=O)c2ccc3ccccc3c2)c1 | 250 µg/mL (≈ 785 µM) | 47% | 125 µg/mL (≈ 393 µM) | 49% | 125 µg/mL (≈ 393 µM) | 51% |  |  |  | 52% | 250 µg/mL (≈ 785 µM) |  |  |  |  |  |  |  |  | 

Source: ChEMBL document CHEMBL3045657, “Synthesis and biological evaluation of naphthalene, furan and pyrrole based chalcones as cytotoxic and antimicrobial agents” (2012)
